Test results from patent publication US11000033B2, “Ketone or oxime compound, and herbicide” (NISSAN CHEMICAL CORPORATION, priority 2014, dated 2021).

Experiments:
Type in all cases: in vivo
[1] = test system: Echinochloa oryzacola Vasing.; test: Test Example 1: herbicidal activity, application before weed generation in submerged conditions (symbol A); details: application herbicide amount 320 g/ha
In short: (§1)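 Mixed weed seeds sown in alluvial soil under 4 cm of water, with rice seedlings at the 2.5-leaf stage added. Same-day treatment: emulsion diluted to a set herbicide amount onto the water. Three weeks at 25–30 °C, then graded on a six-step scale.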

[2] = test system: Monochoria vaginalis; test: Test Example 1: herbicidal activity, application before weed generation in submerged conditions (symbol C); details: application herbicide amount 320 g/ha
In short: as §1

[3] = test system: Monochoria vaginalis; test: Test Example 2: herbicidal activity, application during weed generation in submerged conditions (symbol C); details: Table 23; application herbicide amount 320 g/ha; grade 0-5 by criteria of Test Example 1
In short: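 Steps: fill pots with alluvial soil; add water to 4 cm depth; co-sow the three weeds; grow at 25° C. to 30° C. under glass; at 1–2 leaves, dose the floodwater with diluted emulsion; rate damage visually after 3 weeks.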

[4] = test system: Cyperus difformis; test: Test Example 3: herbicidal effect by foliage application, Wagner pot (symbol E); details: application herbicide amount 320 g/ha
In short: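 Post-emergence, paddy-type test: seedlings 14 d old in shallow-flooded (0.1–0.5 cm) alluvial soil, 25–30 °C greenhouse. Emulsion diluted to target rate, sprayed on leaves. Read-out: visual effect on each species at 3 weeks, per set criteria.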

[5] = test system: directly sowed rice plant; test: Test Example 3: effect on crop by foliage application, Wagner pot (symbol b); details: application herbicide amount 320 g/ha
In short: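 Alluvial soil in a 1/10000-are Wagner pot was flooded to a water depth of 0.1–0.5 cm. Echinochloa crus-galli var. crus-galli, Leptochloa chinensis, Cyperus difformis and rice were sown into it and grown in a greenhouse at 25–30 °C.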

[6] = test system: Digitaria ciliaris; test: Test Example 4: herbicidal effect by soil treatment (symbol F); details: application herbicide amount 320 g/ha
In short: (§2)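 Seeds were sown in sterilized diluvial soil, covered with about 1.5 cm of soil, and the soil surface was sprayed with a water-diluted emulsion of the compound at a predetermined rate. Plants grew in a greenhouse at 25° C. to 30° C.; effects were scored visually 3 weeks after application.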

[7] = test system: Apera spica-venti; test: Test Example 4: herbicidal effect by soil treatment (symbol L); details: application herbicide amount 320 g/ha
In short: as §2

[8] = test system: Amaranthus retroflexus; test: Test Example 4: herbicidal effect by soil treatment (symbol N); details: application herbicide amount 320 g/ha
In short: as §2

[9] = test system: rapeseed; test: Test Example 4: effect on crop by soil treatment (symbol g); details: application herbicide amount 320 g/ha
In short: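 Plants grew in a 25° C. to 30° C. greenhouse after spot-sowing of seeds, including beet, rapeseed, wheat and rice, into sterilized diluvial soil under roughly 1.5 cm of cover soil.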

[10] = test system: Echinochloa crus-galli var. crus-galli; test: Test Example 5: herbicidal effect by foliage application, plastic box (symbol H); details: 320 g/ha, 3 weeks after application
In short: (§3)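 Greenhouse foliar test: seedlings at 14 days, grown 25° C. to 30° C. in sterilized diluvial soil; compound applied as an aqueous dilution of an emulsion; response read 3 weeks after spraying.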

[11] = test system: Avena fatua; test: Test Example 5: herbicidal effect by foliage application, plastic box (symbol I); details: 320 g/ha, 3 weeks after application
In short: as §3

[12] = test system: Alopecurus myosuroides; test: Test Example 5: herbicidal effect by foliage application, plastic box (symbol J); details: 320 g/ha, 3 weeks after application
In short: as §3

[13] = test system: Amaranthus retroflexus; test: Test Example 5: herbicidal effect by foliage application, plastic box (symbol N); details: 320 g/ha, 3 weeks after application
In short: as §3

[14] = test system: Galium spurium; test: Test Example 5: herbicidal effect by foliage application, plastic box (symbol Q); details: 320 g/ha, 3 weeks after application
In short: as §3

CON=CCC1CC(O)=C(c2c(C)cc(C)cc2C)C1=O (stereo not shown) [1-050]
Herbicidal effect grade, A: Echinochloa oryzacola Vasing. [1]: 4 (Herbicidal ratio of 70% or higher and lower than 90%)
Herbicidal effect grade, C: Monochoria vaginalis [2]: 3 (Herbicidal ratio of 40% or higher and lower than 70%)
Herbicidal effect grade, C: Monochoria vaginalis [3]: 0 (Herbicidal ratio of 5% or lower (almost no effect))
herbicidal effect on E, grade 0-5 [4]: 5 (Herbicidal ratio of 90% or more (almost completely withered))
effect on crop b (directly sowed rice plant), grade 0-5 [5]: 5 (Herbicidal ratio of 90% or more (almost completely withered))
F (Digitaria ciliaris) herbicidal effect grade [6]: 5 (Herbicidal ratio of 90% or more (almost completely withered))
L (Apera spica-venti) herbicidal effect grade [7]: 0 (Herbicidal ratio of 5% or lower (almost no effect))
N (Amaranthus retroflexus) herbicidal effect grade [8]: 0 (Herbicidal ratio of 5% or lower (almost no effect))
g (rapeseed) effect on crop grade [9]: 0 (Herbicidal ratio of 5% or lower (almost no effect))
H: Echinochloa crus-galli var. crus-galli, herbicidal effect grade [10]: 5 (Herbicidal ratio of 90% or more (almost completely withered))
I: Avena fatua, herbicidal effect grade [11]: 3 (Herbicidal ratio of 40% or higher and lower than 70%)
J: Alopecurus myosuroides, herbicidal effect grade [12]: 4 (Herbicidal ratio of 70% or higher and lower than 90%)
N: Amaranthus retroflexus, herbicidal effect grade [13]: 0 (Herbicidal ratio of 5% or lower (almost no effect))
Q: Galium spurium, herbicidal effect grade [14]: 0 (Herbicidal ratio of 5% or lower (almost no effect))

CON=C(CC1CC(O)=C(c2c(C)cc(C)cc2C)C1=O)C(C)C (stereo not shown) [1-048]
Herbicidal effect grade, A: Echinochloa oryzacola Vasing. [1]: 5 (Herbicidal ratio of 90% or more (almost completely withered))
Herbicidal effect grade, C: Monochoria vaginalis [2]: 1 (Herbicidal ratio of 5% or higher and lower than 20%)
Herbicidal effect grade, C: Monochoria vaginalis [3]: 2 (Herbicidal ratio of 20% or higher and lower than 40%)
herbicidal effect on E, grade 0-5 [4]: 5 (Herbicidal ratio of 90% or more (almost completely withered))
effect on crop b (directly sowed rice plant), grade 0-5 [5]: 5 (Herbicidal ratio of 90% or more (almost completely withered))
F (Digitaria ciliaris) herbicidal effect grade [6]: 5 (Herbicidal ratio of 90% or more (almost completely withered))
L (Apera spica-venti) herbicidal effect grade [7]: 5 (Herbicidal ratio of 90% or more (almost completely withered))
N (Amaranthus retroflexus) herbicidal effect grade [8]: 1 (Herbicidal ratio of 5% or higher and lower than 20%)
g (rapeseed) effect on crop grade [9]: 0 (Herbicidal ratio of 5% or lower (almost no effect))
H: Echinochloa crus-galli var. crus-galli, herbicidal effect grade [10]: 5 (Herbicidal ratio of 90% or more (almost completely withered))
I: Avena fatua, herbicidal effect grade [11]: 4 (Herbicidal ratio of 70% or higher and lower than 90%)
J: Alopecurus myosuroides, herbicidal effect grade [12]: 5 (Herbicidal ratio of 90% or more (almost completely withered))
N: Amaranthus retroflexus, herbicidal effect grade [13]: 1 (Herbicidal ratio of 5% or higher and lower than 20%)
Q: Galium spurium, herbicidal effect grade [14]: 1 (Herbicidal ratio of 5% or higher and lower than 20%)

CON=C(C)CC1CC(OCC#C[Si](C)(C)C)=C(c2c(C)cc(C)cc2C)C1=O (stereo not shown) [1-031]
Herbicidal effect grade, A: Echinochloa oryzacola Vasing. [1]: 5 (Herbicidal ratio of 90% or more (almost completely withered))
Herbicidal effect grade, C: Monochoria vaginalis [2]: 2 (Herbicidal ratio of 20% or higher and lower than 40%)
Herbicidal effect grade, C: Monochoria vaginalis [3]: 0 (Herbicidal ratio of 5% or lower (almost no effect))
herbicidal effect on E, grade 0-5 [4]: 0 (Herbicidal ratio of 5% or lower (almost no effect))
effect on crop b (directly sowed rice plant), grade 0-5 [5]: 5 (Herbicidal ratio of 90% or more (almost completely withered))
F (Digitaria ciliaris) herbicidal effect grade [6]: 0 (Herbicidal ratio of 5% or lower (almost no effect))
L (Apera spica-venti) herbicidal effect grade [7]: 0 (Herbicidal ratio of 5% or lower (almost no effect))
N (Amaranthus retroflexus) herbicidal effect grade [8]: 0 (Herbicidal ratio of 5% or lower (almost no effect))
g (rapeseed) effect on crop grade [9]: 3 (Herbicidal ratio of 40% or higher and lower than 70%)
H: Echinochloa crus-galli var. crus-galli, herbicidal effect grade [10]: 1 (Herbicidal ratio of 5% or higher and lower than 20%)
I: Avena fatua, herbicidal effect grade [11]: 3 (Herbicidal ratio of 40% or higher and lower than 70%)
J: Alopecurus myosuroides, herbicidal effect grade [12]: 3 (Herbicidal ratio of 40% or higher and lower than 70%)
N: Amaranthus retroflexus, herbicidal effect grade [13]: 0 (Herbicidal ratio of 5% or lower (almost no effect))
Q: Galium spurium, herbicidal effect grade [14]: 0 (Herbicidal ratio of 5% or lower (almost no effect))

CCON=C(C)CC1CC(O)=C(c2c(C)cc(C)cc2C)C1=O (stereo not shown) [1-003]
Herbicidal effect grade, A: Echinochloa oryzacola Vasing. [1]: 5 (Herbicidal ratio of 90% or more (almost completely withered))
Herbicidal effect grade, C: Monochoria vaginalis [2]: 5 (Herbicidal ratio of 90% or more (almost completely withered))
Herbicidal effect grade, C: Monochoria vaginalis [3]: 3 (Herbicidal ratio of 40% or higher and lower than 70%)
herbicidal effect on E, grade 0-5 [4]: 5 (Herbicidal ratio of 90% or more (almost completely withered))
effect on crop b (directly sowed rice plant), grade 0-5 [5]: 5 (Herbicidal ratio of 90% or more (almost completely withered))
F (Digitaria ciliaris) herbicidal effect grade [6]: 5 (Herbicidal ratio of 90% or more (almost completely withered))
L (Apera spica-venti) herbicidal effect grade [7]: 5 (Herbicidal ratio of 90% or more (almost completely withered))
N (Amaranthus retroflexus) herbicidal effect grade [8]: 3 (Herbicidal ratio of 40% or higher and lower than 70%)
g (rapeseed) effect on crop grade [9]: 4 (Herbicidal ratio of 70% or higher and lower than 90%)
H: Echinochloa crus-galli var. crus-galli, herbicidal effect grade [10]: 5 (Herbicidal ratio of 90% or more (almost completely withered))
I: Avena fatua, herbicidal effect grade [11]: 5 (Herbicidal ratio of 90% or more (almost completely withered))
J: Alopecurus myosuroides, herbicidal effect grade [12]: 5 (Herbicidal ratio of 90% or more (almost completely withered))
N: Amaranthus retroflexus, herbicidal effect grade [13]: 3 (Herbicidal ratio of 40% or higher and lower than 70%)
Q: Galium spurium, herbicidal effect grade [14]: 3 (Herbicidal ratio of 40% or higher and lower than 70%)

CON=C(C)C(C)C1CC(O)=C(c2c(C)cc(C)cc2C)C1=O (stereo not shown) [1-032]
Herbicidal effect grade, A: Echinochloa oryzacola Vasing. [1]: 5 (Herbicidal ratio of 90% or more (almost completely withered))
Herbicidal effect grade, C: Monochoria vaginalis [2]: 3 (Herbicidal ratio of 40% or higher and lower than 70%)
Herbicidal effect grade, C: Monochoria vaginalis [3]: 3 (Herbicidal ratio of 40% or higher and lower than 70%)
herbicidal effect on E, grade 0-5 [4]: 5 (Herbicidal ratio of 90% or more (almost completely withered))
effect on crop b (directly sowed rice plant), grade 0-5 [5]: 5 (Herbicidal ratio of 90% or more (almost completely withered))
F (Digitaria ciliaris) herbicidal effect grade [6]: 5 (Herbicidal ratio of 90% or more (almost completely withered))
L (Apera spica-venti) herbicidal effect grade [7]: 5 (Herbicidal ratio of 90% or more (almost completely withered))
N (Amaranthus retroflexus) herbicidal effect grade [8]: 4 (Herbicidal ratio of 70% or higher and lower than 90%)
g (rapeseed) effect on crop grade [9]: 5 (Herbicidal ratio of 90% or more (almost completely withered))
H: Echinochloa crus-galli var. crus-galli, herbicidal effect grade [10]: 5 (Herbicidal ratio of 90% or more (almost completely withered))
I: Avena fatua, herbicidal effect grade [11]: 5 (Herbicidal ratio of 90% or more (almost completely withered))
J: Alopecurus myosuroides, herbicidal effect grade [12]: 5 (Herbicidal ratio of 90% or more (almost completely withered))
N: Amaranthus retroflexus, herbicidal effect grade [13]: 3 (Herbicidal ratio of 40% or higher and lower than 70%)
Q: Galium spurium, herbicidal effect grade [14]: 4 (Herbicidal ratio of 70% or higher and lower than 90%)
